Assay results reported in PubChem BioAssay AID248 (DTP/NCI, 2004).
“And” between values parts separate entries of the source, which are not always exact repeats. Equal entries are not always repeated. Toxic doses and inconclusive results are not listed. Rule as the data show it: active = T/C of 150% or more; inactive = T/C below 125%.

Tested on: L1210 leukemia ip in BDF1 mice, survival T/C
Assay: NCI In Vivo Anticancer Drug Screen. Data for tumor model L1210 Leukemia (intraperitoneal) in B6D2F1 (BDF1) mice
Conditions: endpoint: mean survival time, higher = longer survival
In short: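 Tumor was transplanted into mice, which were then dosed with test compound or vehicle alone. Survival was recorded for each group, and the treated figure was expressed relative to the control figure.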

[1] = dose: 100.0 mg/kg/injection, schedule: Q01DX001 (ip), vehicle: other
[2] = dose: 200.0 mg/kg/injection, schedule: Q01DX001 (ip), vehicle: other
[3] = dose: 400.0 mg/kg/injection, schedule: Q01DX001 (ip), vehicle: other
[4] = dose: 100.0 mg/kg/injection, schedule: Q01DX001 (ip), vehicle: carboxymethylcellulose (CMC)
[5] = dose: 200.0 mg/kg/injection, schedule: Q01DX001 (ip), vehicle: carboxymethylcellulose (CMC)
[6] = dose: 12.5 mg/kg/injection, schedule: Q01DX009 (ip), vehicle: saline with Tween-80
[7] = dose: 100.0 mg/kg/injection, schedule: Q01DX009 (ip), vehicle: Klucel (hydroxypropylcellulose) (HPC)
[8] = dose: 100.0 mg/kg/injection, schedule: Q04DX003 (ip), vehicle: Klucel (hydroxypropylcellulose) (HPC)
[9] = dose: 200.0 mg/kg/injection, schedule: Q04DX003 (ip), vehicle: Klucel (hydroxypropylcellulose) (HPC)
[10] = dose: 400.0 mg/kg/injection, schedule: Q04DX003 (ip), vehicle: Klucel (hydroxypropylcellulose) (HPC)
[11] = dose: 50.0 mg/kg/injection, schedule: Q01DX009 (ip), vehicle: saline with Tween-80
[12] = dose: 100.0 mg/kg/injection, schedule: Q01DX009 (ip), vehicle: saline with Tween-80
[13] = dose: 200.0 mg/kg/injection, schedule: Q01DX009 (ip), vehicle: saline with Tween-80
[14] = dose: 100.0 mg/kg/injection, schedule: Q04DX003 (ip), vehicle: other
[15] = dose: 200.0 mg/kg/injection, schedule: Q04DX003 (ip), vehicle: other

Measured: T/C

CCCCCOC(=S)S
inactive: dose: 9.37 mg/kg/injection, schedule: Q01DX009 (ip), vehicle: saline 100 % of control | dose: 18.75 mg/kg/injection, schedule: Q01DX009 (ip), vehicle: saline 110 % of control | dose: 37.5 mg/kg/injection, schedule: Q01DX009 (ip), vehicle: saline 98 % of control | dose: 100.0 mg/kg/injection, schedule: Q01DX001 (ip), vehicle: saline 109 % of control | dose: 200.0 mg/kg/injection, schedule: Q01DX001 (ip), vehicle: saline 103 % of control

CCCCNS(=O)(=O)c1n[nH]c(=O)[nH]c1=O
inactive: [1] 104 % of control | [2] 101 % of control | [3] 93 % of control

Cc1cccc[n+]1C
inactive: dose: 50.0 mg/kg/injection, schedule: Q01DX001 (ip), vehicle: carboxymethylcellulose (CMC) 111 % of control | dose: 100.0 mg/kg/injection, schedule: Q01DX001 (ip), vehicle: Klucel (hydroxypropylcellulose) (HPC) 95 % of control | [4] 92 % of control | dose: 200.0 mg/kg/injection, schedule: Q01DX001 (ip), vehicle: Klucel (hydroxypropylcellulose) (HPC) 104 % of control | [5] 103 % of control

CCCCNC(=O)Nc1ccc(Cl)cc1
inactive: dose: 25.0 mg/kg/injection, schedule: Q01DX001 (ip), vehicle: saline with Tween-80 100 % of control | dose: 50.0 mg/kg/injection, schedule: Q01DX001 (ip), vehicle: saline with Tween-80 88 % of control | dose: 100.0 mg/kg/injection, schedule: Q01DX001 (ip), vehicle: saline with Tween-80 88 % of control | dose: 100.0 mg/kg/injection, schedule: Q04DX002 (ip), vehicle: Klucel (hydroxypropylcellulose) (HPC) 96 % of control | dose: 200.0 mg/kg/injection, schedule: Q04DX002 (ip), vehicle: Klucel (hydroxypropylcellulose) (HPC) 100 % of control | dose: 400.0 mg/kg/injection, schedule: Q04DX002 (ip), vehicle: Klucel (hydroxypropylcellulose) (HPC) 104 % of control

c1cc[n+](CCNCC[n+]2ccccc2)cc1
inactive: dose: 75.0 mg/kg/injection, schedule: Q01DX001 (ip), vehicle: saline 93 % of control | dose: 150.0 mg/kg/injection, schedule: Q01DX001 (ip), vehicle: saline 94 % of control

O=C1C=CC(=O)N1C12CC3CC(CC(C3)C1)C2
inactive: dose: 12.5 mg/kg/injection, schedule: Q04DX002 (ip), vehicle: Klucel (hydroxypropylcellulose) (HPC) 98 % of control | dose: 25.0 mg/kg/injection, schedule: Q04DX002 (ip), vehicle: Klucel (hydroxypropylcellulose) (HPC) 105 % of control | dose: 50.0 mg/kg/injection, schedule: Q04DX002 (ip), vehicle: Klucel (hydroxypropylcellulose) (HPC) 94 % of control

NC(=S)N/N=C/c1ccc(F)cn1
inactive: dose: 1.56 mg/kg/injection, schedule: Q01DX009 (ip), vehicle: saline with Tween-80 99 % of control | dose: 3.13 mg/kg/injection, schedule: Q01DX009 (ip), vehicle: saline with Tween-80 106 % of control and 115 % of control | dose: 5.54 mg/kg/injection, schedule: Q01DX009 (ip), vehicle: saline with Tween-80 108 % of control | dose: 6.25 mg/kg/injection, schedule: Q01DX009 (ip), vehicle: saline with Tween-80 119 % of control | dose: 6.25 mg/kg/injection, schedule: Q04DX002 (ip), vehicle: saline with Tween-80 104 % of control | dose: 8.32 mg/kg/injection, schedule: Q01DX009 (ip), vehicle: saline with Tween-80 114 % of control | [6] 119 % of control and 124 % of control | dose: 12.5 mg/kg/injection, schedule: Q04DX002 (ip), vehicle: saline with Tween-80 112 % of control | dose: 18.8 mg/kg/injection, schedule: Q01DX009 (ip), vehicle: saline with Tween-80 98 % of control | dose: 22.0 mg/kg/injection, schedule: Q01DX001 (ip), vehicle: saline with Tween-80 105 % of control | dose: 25.0 mg/kg/injection, schedule: Q04DX002 (ip), vehicle: saline with Tween-80 97 % of control | dose: 33.0 mg/kg/injection, schedule: Q01DX001 (ip), vehicle: saline with Tween-80 107 % of control

CC[N+](C)(CC)CCN1C(=O)c2ccccc2S1(=O)=O
inactive: dose: 44.0 mg/kg/injection, schedule: Q01DX Z (ip), vehicle: saline 108 % of control | dose: 66.0 mg/kg/injection, schedule: Q01DX Z (ip), vehicle: saline 98 % of control

COc1ccc(OC)c(NC(=O)Oc2ccccc2F)c1
inactive: dose: 50.0 mg/kg/injection, schedule: Q01DX009 (ip), vehicle: Klucel (hydroxypropylcellulose) (HPC) 97 % of control | [7] 93 % of control | [8] 90 % of control | [9] 93 % of control | [10] 92 % of control

NC(=O)c1nc2ccccc2nc1C(N)=O
inactive: [7] 92 % of control | [8] 92 % of control | dose: 200.0 mg/kg/injection, schedule: Q01DX009 (ip), vehicle: Klucel (hydroxypropylcellulose) (HPC) 92 % of control | [9] 92 % of control | dose: 400.0 mg/kg/injection, schedule: Q01DX009 (ip), vehicle: Klucel (hydroxypropylcellulose) (HPC) 96 % of control | [10] 90 % of control

OCC1N=C(c2ccccc2)OC1c1ccccc1 (centres undefined)
inactive: [11] 94 % of control | [12] 102 % of control | [13] 96 % of control

COC1OC(COC(=O)c2ccc([N+](=O)[O-])cc2)C(N(C)C(C)=O)C1OC(=O)c1ccc([N+](=O)[O-])cc1 (centres undefined)
inactive: [4] 93 % of control | [5] 93 % of control | dose: 400.0 mg/kg/injection, schedule: Q01DX001 (ip), vehicle: carboxymethylcellulose (CMC) 93 % of control

CC(C)SCC(NC(=O)/C=C/c1ccccc1)C(=O)O (centres undefined)
inactive: dose: 50.0 mg/kg/injection, schedule: Q04DX003 (ip), vehicle: other 97 % of control | [14] 101 % of control | [15] 95 % of control

CCCCC(=O)NN
inactive: [6] 103 % of control | dose: 22.0 mg/kg/injection, schedule: Q01DX009 (ip), vehicle: saline with Tween-80 110 % of control | dose: 25.0 mg/kg/injection, schedule: Q01DX009 (ip), vehicle: saline with Tween-80 111 % of control and 112 % of control | [11] 100 % of control | dose: 60.0 mg/kg/injection, schedule: Q01DX009 (ip), vehicle: saline with Tween-80 118 % of control

CN(C)S(=O)(=O)c1ccc(NC(=O)C(Cl)Cl)cc1
inactive: [1] 100 % of control | [12] 100 % of control | [14] 103 % of control | [2] 107 % of control | [13] 100 % of control | [15] 101 % of control | [3] 100 % of control | dose: 400.0 mg/kg/injection, schedule: Q01DX009 (ip), vehicle: saline with Tween-80 86 % of control | dose: 400.0 mg/kg/injection, schedule: Q04DX003 (ip), vehicle: other 101 % of control

C=CCSc1nc2c(=O)[nH]c(N)nc2n1C1OC(CO)C(O)C1O (centres undefined)
inactive: dose: 100.0 mg/kg/injection, schedule: Q01DX005 (ip), vehicle: saline 100 % of control | dose: 200.0 mg/kg/injection, schedule: Q01DX005 (ip), vehicle: saline 103 % of control
